30 compounds from US20230103791A1 (GLAXOSMITHKLINE INTELLECTUAL PROPERTY DEVELOPMENT LIMITED, priority 2019, published 2023) can be followed below.

Where only a bound is given, the exact number is not on record here.

This test deals with T1, human Nav1.8 (Homo sapiens, UniProt Q9Y5Y9).
T1 construct: expressed in transfected cells; host or cells: HEK293 (HEK293-Nav1.8)
T1 sequence (Q9Y5Y9 whole entry): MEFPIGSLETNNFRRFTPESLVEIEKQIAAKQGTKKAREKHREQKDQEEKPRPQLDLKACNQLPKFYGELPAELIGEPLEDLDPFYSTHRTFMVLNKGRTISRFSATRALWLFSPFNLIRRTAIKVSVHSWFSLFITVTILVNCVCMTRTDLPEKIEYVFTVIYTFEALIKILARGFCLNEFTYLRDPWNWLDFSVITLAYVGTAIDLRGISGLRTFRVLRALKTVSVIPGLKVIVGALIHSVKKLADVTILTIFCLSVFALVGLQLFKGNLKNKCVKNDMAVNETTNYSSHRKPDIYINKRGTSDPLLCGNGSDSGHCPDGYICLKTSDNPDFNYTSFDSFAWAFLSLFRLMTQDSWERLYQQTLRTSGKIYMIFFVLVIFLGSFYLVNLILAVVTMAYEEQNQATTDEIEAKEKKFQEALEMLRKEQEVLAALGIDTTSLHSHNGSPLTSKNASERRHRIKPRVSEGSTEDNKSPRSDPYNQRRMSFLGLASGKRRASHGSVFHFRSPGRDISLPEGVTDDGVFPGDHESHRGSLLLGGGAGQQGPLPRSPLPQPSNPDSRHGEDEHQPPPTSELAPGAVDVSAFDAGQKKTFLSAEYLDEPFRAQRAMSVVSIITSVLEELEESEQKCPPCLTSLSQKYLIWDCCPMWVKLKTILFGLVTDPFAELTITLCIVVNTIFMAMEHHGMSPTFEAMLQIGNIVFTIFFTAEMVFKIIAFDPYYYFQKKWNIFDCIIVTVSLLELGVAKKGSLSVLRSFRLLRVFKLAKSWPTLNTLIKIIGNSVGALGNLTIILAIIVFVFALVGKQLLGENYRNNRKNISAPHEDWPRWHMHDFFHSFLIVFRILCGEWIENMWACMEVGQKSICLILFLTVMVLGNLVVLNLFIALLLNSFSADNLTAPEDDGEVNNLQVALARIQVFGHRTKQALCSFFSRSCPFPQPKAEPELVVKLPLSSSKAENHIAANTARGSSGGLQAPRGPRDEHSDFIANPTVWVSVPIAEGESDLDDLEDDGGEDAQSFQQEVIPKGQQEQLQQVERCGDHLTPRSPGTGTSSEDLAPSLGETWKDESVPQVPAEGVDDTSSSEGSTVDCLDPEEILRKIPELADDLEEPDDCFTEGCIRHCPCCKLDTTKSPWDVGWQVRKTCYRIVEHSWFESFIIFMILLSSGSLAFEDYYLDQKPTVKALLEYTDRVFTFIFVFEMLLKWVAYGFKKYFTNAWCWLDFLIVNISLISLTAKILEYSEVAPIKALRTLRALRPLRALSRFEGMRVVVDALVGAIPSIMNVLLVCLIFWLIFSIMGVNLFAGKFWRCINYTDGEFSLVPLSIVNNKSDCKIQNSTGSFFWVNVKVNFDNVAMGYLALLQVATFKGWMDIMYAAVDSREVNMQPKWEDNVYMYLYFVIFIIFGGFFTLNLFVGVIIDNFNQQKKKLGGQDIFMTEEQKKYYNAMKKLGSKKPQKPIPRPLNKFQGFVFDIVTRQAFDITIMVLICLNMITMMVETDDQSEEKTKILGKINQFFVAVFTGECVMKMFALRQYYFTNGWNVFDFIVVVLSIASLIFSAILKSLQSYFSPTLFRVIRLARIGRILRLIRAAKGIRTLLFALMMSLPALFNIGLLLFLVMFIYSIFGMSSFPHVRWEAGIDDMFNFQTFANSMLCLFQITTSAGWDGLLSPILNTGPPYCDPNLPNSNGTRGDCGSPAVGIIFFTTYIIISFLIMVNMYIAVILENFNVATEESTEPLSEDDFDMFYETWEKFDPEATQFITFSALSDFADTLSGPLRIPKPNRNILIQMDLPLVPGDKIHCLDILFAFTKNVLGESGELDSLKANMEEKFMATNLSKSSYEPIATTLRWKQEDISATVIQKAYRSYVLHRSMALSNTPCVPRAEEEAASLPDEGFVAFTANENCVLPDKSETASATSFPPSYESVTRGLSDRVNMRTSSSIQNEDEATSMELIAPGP
T1 sequence (Q07699 19-218 partner): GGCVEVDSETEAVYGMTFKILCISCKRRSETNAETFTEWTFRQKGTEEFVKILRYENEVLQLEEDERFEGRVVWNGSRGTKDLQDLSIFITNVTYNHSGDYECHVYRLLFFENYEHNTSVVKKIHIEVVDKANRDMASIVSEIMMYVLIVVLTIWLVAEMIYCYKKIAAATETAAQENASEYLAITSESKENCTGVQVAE
In words: Nav1.8 sodium channels assay, QPatch 48 HTX electrophysiology in HEK293-Nav1.8 cells. It counts as cell-based. The note with it: at least one set of experimental runs; read-out: average pIC50 value against Nav1.8 (converted). The method in brief: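 HEK293 cells co-expressing human Nav1.8, Navβ1 and TREK1 were voltage-clamped on QPatch 48 HTX. The V1/2 protocol ran at 0.07 Hz: hold −100 mV, 20 ms to 0 mV, 8 s at −46 mV, 20 ms at −100 mV, then 20 ms at 0 mV (P2). P2 current was fitted over 6-8 concentrations for IC50, with vehicle wells used to correct for run-down.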
With `COc1cc(F)ccc1N1CN(c2ccc(=O)[nH]c2C)C(=O)c2cc(F)c(F)cc21` [Example 132, 6,7-difluoro-1-(4-fluoro-2-methoxyphenyl)-3-(2-methyl-6-oxo-1,6-dihydropyridin-3-yl)-2,3-dihydroquinazolin-4(1H)-one], the IC50 was 0.126 to 0.631 µM.

In the case of `Cc1ccc(N2CN(c3ccc(=O)[nH]c3C)C(=O)c3cc(Cl)ccc32)c(O)c1` [Example 133, 6-chloro-1-(2-hydroxy-4-methylphenyl)-3-(2-methyl-6-oxo-1,6-dihydropyridin-3-yl)-2,3-dihydroquinazolin-4(1H)-one], the IC50 was 0.794 to 7.94 µM.

Regarding `COc1cc(C)ccc1N1CN(c2ccc(=O)[nH]c2C)C(=O)c2cc(Cl)ccc21` [Example 134, 6-chloro-1-(2-methoxy-4-methylphenyl)-3-(2-methyl-6-oxo-1,6-dihydropyridin-3-yl)-2,3-dihydroquinazolin-4(1H)-one], the IC50 was 0.126 to 0.631 µM.

`Cc1cccc(F)c1N1CN(c2ccc(=O)[nH]c2C)C(=O)c2cc(C(F)(F)F)ccc21` [Example 135, 1-(2-fluoro-6-methylphenyl)-3-(2-methyl-6-oxo-1,6-dihydropyridin-3-yl)-6-(trifluoromethyl)-2,3-dihydroquinazolin-4(1H)-one]: the IC50 is 0.794 to 7.94 µM.

Take `Cc1cc(F)ccc1N1CN(c2cc[nH]c(=O)c2)C(=O)c2c1ccc(Cl)c2F` [Example 136, 6-chloro-5-fluoro-1-(4-fluoro-2-methylphenyl)-3-(2-oxo-1,2-dihydropyridin-4-yl)-2,3-dihydroquinazolin-4(1H)-one]: the IC50 is 0.794 to 7.94 µM.

Consider `Cc1[nH]c(=O)ccc1N1CN(c2ccc(F)cc2C(C)C)c2cc(C(F)F)ccc2C1=O` [Example 137, 7-(difluoromethyl)-1-(4-fluoro-2-isopropylphenyl)-3-(2-methyl-6-oxo-1,6-dihydropyridin-3-yl)-2,3-dihydroquinazolin-4(1H)-one], for which the IC50 is at most 0.1 µM.

Regarding `Cc1cc(F)ccc1N1CN(c2ccc(=O)[nH]c2C)C(=O)c2ccc(C(F)F)cc21` [Example 138, 7-(difluoromethyl)-1-(4-fluoro-2-methylphenyl)-3-(2-methyl-6-oxo-1,6-dihydropyridin-3-yl)-2,3-dihydroquinazolin-4(1H)-one], the IC50 is at most 0.1 µM.

`CCc1[nH]c(=O)ccc1N1CN(c2ccc(F)cc2C(C)C)c2ccc(Cl)cc2C1=O` [Example 139, 6-chloro-3-(2-ethyl-6-oxo-1,6-dihydropyridin-3-yl)-1-(4-fluoro-2-isopropylphenyl)-2,3-dihydroquinazolin-4(1H)-one]: the IC50 is at most 0.1 µM.

On to `Cc1[nH]c(=O)ccc1N1CN(c2ccc(F)c(C#N)c2C)c2ccc(C(F)(F)F)cc2C1=O` [Example 140, 6-fluoro-2-methyl-3-(3-(2-methyl-6-oxo-1,6-dihydropyridin-3-yl)-4-oxo-6-(trifluoromethyl)-3,4-dihydroquinazolin-1(2H)-yl)benzonitrile], for which the IC50 was 0.126 to 0.631 µM.

Turning to `Cc1[nH]c(=O)ccc1N1CN(c2ccc(F)cc2C(C)C)c2ncc(F)cc2C1=O` [Example 141, 6-fluoro-1-(4-fluoro-2-isopropylphenyl)-3-(2-methyl-6-oxo-1,6-dihydropyridin-3-yl)-2,3-dihydropyrido[2,3-d]pyrimidin-4(1H)-one], the IC50 is 0.126 to 0.631 µM.

As to `Cc1[nH]c(=O)ccc1N1CN(c2ccc(F)cc2Br)c2ccc(C(F)(F)F)cc2C1=O` [Example 142, 1-(2-bromo-4-fluorophenyl)-3-(2-methyl-6-oxo-1,6-dihydropyridin-3-yl)-6-(trifluoromethyl)-2,3-dihydroquinazolin-4(1H)-one], the IC50 was at most 0.1 µM.

As to `Cc1cc(F)ccc1N1CN(c2ccc(=O)[nH]c2C)C(=O)c2cc(F)ccc21` [Example 143, 6-fluoro-1-(4-fluoro-2-methylphenyl)-3-(2-methyl-6-oxo-1,6-dihydropyridin-3-yl)-2,3-dihydroquinazolin-4(1H)-one], the IC50 is at most 0.1 µM.

With `O=C1c2ccc(C(F)(F)F)cc2N(c2ccc(F)cc2)CN1c1ccc(=O)[nH]c1` [Example 144, 1-(4-Fluorophenyl)-3-(6-oxo-1,6-dihydropyridin-3-yl)-7-(trifluoromethyl)-2,3-dihydroquinazolin-4(1H)-one], the IC50 is 0.126 to 0.631 µM.

On to `Cc1cc(F)ccc1N1CN(c2cnc(=O)[nH]c2)C(=O)c2ccc(C(F)(F)F)cc21` [Example 145, 1-(4-fluoro-2-methylphenyl)-3-(2-oxo-1,2-dihydropyrimidin-5-yl)-7-(trifluoromethyl)-2,3-dihydroquinazolin-4(1H)-one], for which the IC50 was 0.126 to 0.631 µM.

Regarding `Cc1cc(Br)ccc1N1CN(c2ccc(=O)[nH]c2)C(=O)c2ccc(C(F)(F)F)cc21` [Example 146, 1-(4-bromo-2-methylphenyl)-3-(6-oxo-1,6-dihydropyridin-3-yl)-7-(trifluoromethyl)-2,3-dihydroquinazolin-4(1H)-one], the IC50 was 0.126 to 0.631 µM.

As for `Cc1[nH]c(=O)ccc1N1CN(c2ccc(F)cc2)c2cc(C(F)(F)F)ccc2C1=O` [Example 147, 1-(4-fluorophenyl)-3-(2-methyl-6-oxo-1,6-dihydropyridin-3-yl)-7-(trifluoromethyl)-2,3-dihydroquinazolin-4(1H)-one], the IC50 is 0.126 to 0.631 µM.

In the case of `Cc1cc(C#N)ccc1N1CN(c2ccc(=O)[nH]c2C)C(=O)c2ccc(C(F)(F)F)cc21` [Example 148, 3-methyl-4-(3-(2-methyl-6-oxo-1,6-dihydropyridin-3-yl)-4-oxo-7-(trifluoromethyl)-3,4-dihydroquinazolin-1(2H)-yl)benzonitrile], the IC50 was at most 0.1 µM.

Regarding `Cc1cc(F)ccc1N1CN(c2ccc(=O)[nH]c2C)C(=O)c2ccc(C(F)(F)F)nc21` [Example 149, 1-(4-fluoro-2-methylphenyl)-3-(2-methyl-6-oxo-1,6-dihydropyridin-3-yl)-7-(trifluoromethyl)-2,3-dihydropyrido[2,3-d]pyrimidin-4(1H)-one], the IC50 was 0.126 to 0.631 µM.

As for `CCc1[nH]c(=O)ccc1N1CN(c2ccc(F)cc2C)c2cc(C(F)(F)F)ccc2C1=O` [Example 150, 3-(2-ethyl-6-oxo-1,6-dihydropyridin-3-yl)-1-(4-fluoro-2-methylphenyl)-7-(trifluoromethyl)-2,3-dihydroquinazolin-4(1H)-one], the IC50 is at most 0.1 µM.

With `Cc1cc(F)ccc1N1CN(c2ccc(=O)[nH]c2Cl)C(=O)c2ccc(C(F)(F)F)cc21` [Example 151, 3-(2-chloro-6-oxo-1,6-dihydropyridin-3-yl)-1-(4-fluoro-2-methylphenyl)-7-(trifluoromethyl)-2,3-dihydroquinazolin-4(1H)-one], the IC50 is 0.794 to 7.94 µM.

Take `Cc1cc(F)ccc1N1CN(c2ccc(=O)[nH]c2C)C(=O)c2ccc(Br)cc21` [Example 152, 7-bromo-1-(4-fluoro-2-methylphenyl)-3-(2-methyl-6-oxo-1,6-dihydropyridin-3-yl)-2,3-dihydroquinazolin-4(1H)-one]: the IC50 is at most 0.1 µM.

On to `Cc1cc(F)ccc1N1CN(c2ccc(=O)[nH]c2C)C(=O)c2ccc(C#N)cc21` [Example 153, 1-(4-fluoro-2-methylphenyl)-3-(2-methyl-6-oxo-1,6-dihydropyridin-3-yl)-4-oxo-1,2,3,4-tetra-hydroquinazoline-7-carbonitrile], for which the IC50 was at most 0.1 µM.

As to `Cc1cc(F)ccc1N1CN(c2ccc(=O)[nH]c2C#N)C(=O)c2ccc(C(F)(F)F)cc21` [Example 154, 3-(1-(4-fluoro-2-methylphenyl)-4-oxo-7-(trifluoromethyl)-1,4-dihydroquinazolin-3(2H)-yl)-6-oxo-1,6-dihydropyridine-2-carbonitrile], the IC50 is 0.126 to 0.631 µM.

Take `Cc1[nH]c(=O)ccc1N1CN(c2ccc(F)cc2F)c2cc(C(F)(F)F)ccc2C1=O` [Example 155, 1-(2,4-difluorophenyl)-3-(2-methyl-6-oxo-1,6-dihydropyridin-3-yl)-7-(trifluoromethyl)-2,3-dihydroquinazolin-4(1H)-one]: the IC50 was 0.126 to 0.631 µM.

Take `CCOc1ccc(N2CN(c3ccc(=O)[nH]c3C)C(=O)c3ccc(C(F)(F)F)cc32)cc1` [Example 156, 1-(4-ethoxyphenyl)-3-(2-methyl-6-oxo-1,6-dihydropyridin-3-yl)-7-(trifluoromethyl)-2,3-dihydroquinazolin-4(1H)-one]: the IC50 is 0.126 to 0.631 µM.

For `Cc1cc(F)ccc1N1CN(c2cc[nH]c(=O)c2)C(=O)c2ccc(C(F)(F)F)cc21` [Example 157, 1-(4-fluoro-2-methylphenyl)-3-(2-oxo-1,2-dihydropyridin-4-yl)-7-(trifluoromethyl)-2,3-dihydroquinazolin-4(1H)-one], the IC50 is 0.126 to 0.631 µM.

Consider `Cc1cc(F)ccc1N1CN(c2ccc(=O)[nH]c2C)C(=O)c2cc(F)c(F)cc21` [Example 158, 6,7-difluoro-1-(4-fluoro-2-methylphenyl)-3-(2-methyl-6-oxo-1,6-dihydropyridin-3-yl)-2,3-dihydroquinazolin-4(1H)-one], for which the IC50 is at most 0.1 µM.

Consider `Cc1[nH]c(=O)ccc1N1CN(c2ccc(F)cc2C(C)C)c2cc(F)c(F)cc2C1=O` [Example 159, 6,7-difluoro-1-(4-fluoro-2-isopropylphenyl)-3-(2-methyl-6-oxo-1,6-dihydropyridin-3-yl)-2,3-dihydroquinazolin-4(1H)-one], for which the IC50 is at most 0.1 µM.

For `Cc1[nH]c(=O)ccc1N1CN([C@H]2CCCC[C@H]2C)c2cc(C(F)(F)F)ccc2C1=O` [Example 160, 3-(2-methyl-6-oxo-1,6-dihydropyridin-3-yl)-1-((1S,2R)-2-methylcyclohexyl)-7-(trifluoromethyl)-2,3-dihydroquinazolin-4(1H)-one], the IC50 is at most 0.1 µM.

With `Cc1[nH]c(=O)ccc1N1CN(c2ccc(F)cc2C(C)C)c2cc(C#N)ccc2C1=O` [Example 161, 1-(4-fluoro-2-isopropylphenyl)-3-(2-methyl-6-oxo-1,6-dihydropyridin-3-yl)-4-oxo-1,2,3,4-tetra-hydroquinazoline-7-carbonitrile], the IC50 is at most 0.1 µM.
